Reference: patent US10028992B2, “Methods of treating muscular dystrophy” (BOARD OF REGENTS OF THE NEVADA SYSTEM OF HIGHER EDUCATION …, priority 2012, dated 2018)

Tested on: α7 integrin promoter
Assay: muscle cell-based assay: α7βgal+/− myoblasts/myotubes, LacZ reporter, β-galactosidase cleavage of FDG
Parameters: species or system mouse; Results in α7+/− β-galactosidase assay: scale not given here
Settings: Myoblasts
How it was run: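 Primary α7βgal+/− mouse myoblasts (LacZ knocked into α7 integrin exon 1, promoter retained), differentiated; promoter activity read as β-galactosidase conversion of non-fluorescent FDG to fluorescein. Hits followed by dose-response, western analysis and myostatin counterscreen.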

| SMILES | Results in α7+/− β-galactosidase assay (0.5 uM) | Results in α7+/− β-galactosidase assay (1 uM) | Results in α7+/− β-galactosidase assay (5 uM) | Results in α7+/− β-galactosidase assay (10 uM) | Results in α7+/− β-galactosidase assay (20 uM) | Results in α7+/− β-galactosidase assay (40 uM) |
| --- | --- | --- | --- | --- | --- | --- |
| O=C1Nc2ccccc2/C1=C\c1cccn1-c1ccc(OC(F)(F)F)cc1 [drawing 653] | −0.1201 | 0.155 | 0.2721 | 0.07821 | 0.05267 | −0.1116 |
| NS(=O)(=O)c1ccc(NC(=O)CN2CCc3ccccc32)cc1 [drawing 654] | −0.2007 | −0.06684 | 0.3068 | 0.002758 | −0.1257 | −0.1195 |
| CC(=O)C1=C(C)Nc2ncnn2C1c1ccc(C)cc1 (stereo not drawn) [drawing 655] | −0.08387 | 0.003197 | 0.2805 | −0.01305 | −0.1533 | −0.247 |
| COc1ccc(OC)c(S(=O)(=O)Nc2c(NC3CCCCC3)c3ccccc3oc2=O)c1 [drawing 656] | −0.2127 | −0.1212 | 0.2955 | −0.031 | −0.2083 | −0.2716 |
| CC(=O)Nc1ccc(NC(=O)C/C(C)=N/NC(=O)COc2cc(C)c(Br)cc2Br)cc1 [drawing 657] | −0.2303 | −0.07096 | 0.03872 | −0.07468 | −0.3089 | −0.4449 |
| Cc1cccc(Cn2cnc3c(nnn3Cc3ccc(Cl)cc3)c2=O)c1 [drawing 658] | −0.04558 | 0.03537 | 0.1703 | −0.06567 | −0.2167 | −0.3491 |
| CCOc1ccc(Br)cc1S(=O)(=O)Nc1ccc(C(=O)Nc2ccccc2OC)cc1 [drawing 659] | −0.08436 | 0.06885 | 0.1299 | −0.03674 | −0.08958 | −0.05546 |
| O=C(NCc1ccccc1)c1csc(-c2cccnc2)n1 [drawing 660] | −0.1908 | −0.04939 | 0.2247 | 0.1255 | 0.2423 | 0.1166 |
| O=C1C2CCCN2C(=O)N1CCCN1CCN(c2cccc(Br)c2)CC1 (stereo not drawn) [drawing 661] | 0.07667 | 0.0555 | 0.04982 | 0.05028 | 0.1016 | 0.1941 |
| C=CCc1c(C)nc(-c2ccccc2)nc1N/N=C(\C)c1ccc(N)cc1 [drawing 662] | −0.00814 | −0.05498 | 0.04244 | 0.0834 | −0.05956 | −0.02989 |
| CC(C)(C)c1csc(NC(=O)c2cccnc2)n1 [drawing 663] | 0.2482 | 0.1813 | 0.09125 | 0.06663 | −0.2863 | −0.3378 |
| Cc1ccccc1/C=C1\C(=O)Nc2ccc(F)cc21 [drawing 664] | 0.2562 | 0.1979 | 0.05318 | 0.04838 | −0.109 | −0.1352 |
| Cc1ccc2c(c1)/C(=C/c1ccccc1)C(=O)N2 [drawing 665] | 0.07717 | 0.02304 | 0.03576 | 0.07323 | −0.484 | −0.5725 |
| COC(=O)c1ccccc1CC(=O)CSc1nc(O)c(-c2ccccc2)c(O)n1 [drawing 666] | 0.06548 | 0.01829 | 0.06613 | 0.1141 | 0.0713 | 0.08837 |
